Data as given in publication PMC7217250, “Efficiency of vanillin in impeding metabolic adaptability and virulence of Candida albicans by inhibiting glyoxylate cycle, morphogenesis, and biofilm formation” (Current Medical Mycology, 2020).

Target: T1, Mls1p (malate synthase, MLS) (Candida albicans, UniProt Q5APD2)
T1 construct: gene MLS1; native enzyme in crude extract of C. albicans cells; not purified
Assay: spectrophotometric 5-thio-2-nitrobenzoic acid formation at […] nm, crude extract
Assay type: cell-based

T1 sequence (Q5APD2 entry or part of it): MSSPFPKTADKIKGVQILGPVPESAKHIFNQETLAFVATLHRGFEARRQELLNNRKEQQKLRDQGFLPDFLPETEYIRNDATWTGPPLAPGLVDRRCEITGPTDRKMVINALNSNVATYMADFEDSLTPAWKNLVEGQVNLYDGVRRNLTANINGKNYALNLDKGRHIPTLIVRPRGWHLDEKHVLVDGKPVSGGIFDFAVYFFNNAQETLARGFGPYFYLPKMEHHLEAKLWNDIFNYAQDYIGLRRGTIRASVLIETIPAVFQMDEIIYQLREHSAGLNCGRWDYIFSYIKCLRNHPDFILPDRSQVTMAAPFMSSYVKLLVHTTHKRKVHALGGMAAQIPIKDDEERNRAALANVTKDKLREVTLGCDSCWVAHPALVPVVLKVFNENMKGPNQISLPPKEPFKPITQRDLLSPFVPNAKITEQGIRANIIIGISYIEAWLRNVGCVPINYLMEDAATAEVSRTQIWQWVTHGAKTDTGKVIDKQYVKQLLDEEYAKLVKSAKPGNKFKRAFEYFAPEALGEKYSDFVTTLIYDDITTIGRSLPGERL

`CC(=O)SCCNC(=O)CCNC(=O)[C@H](O)C(C)(C)COP(=O)(O)OP(=O)(O)OC[C@H]1O[C@@H](n2cnc3c(N)ncnc32)[C@H](O)[C@@H]1OP(=O)(O)O` [acetyl CoA] was tested, and the “spectrophotometric 5-thio-2-nitrobenzoic acid formation at 412 nm, crude extract” value was “acetyl CoA (Sigma Chemical Co., USA) were used as the substrates for the ICL and MLS”.
